Test results as given in patent US12268727B2, “Bioactive polypeptides for improvements in plant protection, growth and productivity” (priority 2017, dated 2025).
Non-standard residues stand in square brackets, D forms with d. No end group written: not given here. sY = N[C@@H](Cc1ccc(OS(=O)(=O)O)cc1)C(=O)O

Legend:
[1] = system: Agrobacterium tumefaciens strain GV3101; experiment: Growth of Agrobacterium tumefaciens culture (OD 600); type: cell-based; conditions: 10.0%, 2.0%, 0.40%, 0.08%, 0.02%
Description: Agrobacterium tumefaciens strain GV3101 was inoculated into Luria broth medium (LB) and grown for 20 hours. Initially the optical density (OD) of the culture was measured at a wavelength of 600 nm using a spectrophotometer and normalized to a low starting density. The cultures were then divided equally and treated with similar proportions of thionins that are representative of mixtures used to treat citrus trees. The ratios of Cs.thionin (SEQ ID NO: 651), As.thionin (SEQ ID NO: 652) and Mt.thionin (SEQ ID NO: 653) used were 10.0%, 2.0%, 0.40%, 0.08%, and 0.02% and were prepared to match the 20 mL total volume of filtrate of each of the thionin mixtures that is used as a treatment per tree. Each thionin mixture was also compared to control mixtures containing only: filtrate, minimal media (LB), or a tetracycline (Tet) antibiotic (10 μg/mL per culture). Each bar represents a combined OD measure of 3 replicates. After incubation with the thionin and antibiotic mixtures, the optical density (OD 600) was measured again to determine if growth of the Agrobacterium cultures was reduced or inhibited.

[2] = system: Pseudomonas syringae pv. actinidiae (PSA-V); experiment: PSA-V leaf spot in potted kiwi plants; type: in vivo
[3] = system: reactive oxygen species (ROS) production in corn tissue; experiment: ROS activity assay in corn tissue (luminol/horseradish peroxidase, RLU); conditions: Table 33; 5 nM polypeptide; RLU relative to native Bt.4Q7Flg22 = 100
[4] = system: reactive oxygen species (ROS) production in soybean leaf tissue; experiment: ROS activity assay in soybean leaf tissue (luminol/horseradish peroxidase, RLU); type: cell-based; conditions: Table 33; 100 nM polypeptide; RLU relative to native Bt.4Q7Flg22 = 100
[5] = system: reactive oxygen species (ROS) production in Kiwi 'Hayward' leaf petioles; experiment: ROS activity assay in kiwi leaf petioles; type: cell-based, Actinidiae deliciosa; conditions: 100 nM peptide
Description: To test the sensitivity of kiwi leaves to 22-amino acid fragments of flagellin, 1 mm slices were cut through Actinidiae deliciosa Kiwi ‘Hayward’ leaf petioles and floated in 150 μL of water in a 96-well plate, with one slice per well. […] In two independent experiments, a total of 6 kiwi leaf petiole samples were treated with each Flg22 polypeptide in Table 94. The average total RLU and standard error of the means (SEM) was calculated for each treatment. A two-tailed T-test was used to determine significance at the 90% confidence level (P<0.1) between treatments. Relative ROS production was determined for each polypeptide in comparison to total RLUs for the 100 nM Bt.4Q7Flg22 control.

soybean [6] = experiment: Foliar application to soybean, field yield trials; type: in vivo; conditions: foliar at R2, AG2836, 7 US Midwest locations
soybean [7] = experiment: Foliar application to soybean, field yield trials; type: in vivo; conditions: for Average Bu/Ac Increase compared to Control Variety 1 and 2 / Average Total Yield Bu/Ac Variety 1 and 2 / Average Total Yield Bu/Ac Variety 2: foliar at R2, 7 US Midwest locations; for Average Total Yield Bu/Ac Variety 2: AG3536
corn [8] = experiment: Foliar application to corn in growth room, plant height (non-stress, heat and water deficit stress)
corn [9] = type: in vivo
soybean [10] = experiment: Foliar application to soybean in growth room, plant height (non-stress, heat and water deficit stress); type: in vivo
Description: Ec.Flg22 (SEQ ID NO: 527) was applied to soybean (Beck's 297NR).
Plant height (cm) was measured just prior to the foliar application delivered at 3 weeks and then again 2 weeks later when the plants were 5-weeks-old. Two replicate trials were conducted using 18 plants per trial.
Soybean plants were grown as described in Example 6. The At.PSKα polypeptide (SEQ ID NO: 598) was applied as a foliar spray to the plants at the V1-V4 stage. Soybean plants treated with foliar applications of At.PSKα and control plants treated with water and surfactant alone were then grown in conditions described in Examples 7-9 that produced a non-stress and stress (heat and water deficit) environments. Table 37 describes the percentage change or increase in height reported for soybean plants treated with At.PSKα as a foliar spray at the V1-V4 growth stage.
RHPP bioactive priming polypeptide (SEQ ID NO: 600) was also applied as foliar treatment to R1 stage hybrid soybean (Beck's 297R4) with 0.1% (v/v) non-ionic surfactant ([…] SURFACE) using a spray bottle delivering approximately 1.2 ml/plant. This experiment was performed to look at the effects of RHPP on plant growth and was conducted using a total of 18 plants per treatment group. […] R1 stage soybean plants were treated with nothing (non-treated control), […] SURFACE surfactant applied at a concentration of 0.1% (v/v) or the RHPP polypeptide (300 nM) applied in combination with […] SURFACE surfactant (0.1% v/v). Height for each plant was recorded at the time of spray and again at 16 days post foliar application and average growth parameters were compared between foliar treatments (Table 39).

[11] = system: Candidatus Liberibacter asiaticus; conditions: in vivo

Substance: Mt.thionin: thionin polypeptide, applied as filtrate (RTCESQSHRFKGPCSRDSNCATVCLTEGFSGGDCRGFRRRCRCTRPCVFDEK; applied as filtrate)
- growth of Agrobacterium cultures vs filtrate, LB or Tet controls [1]: dose dependent response and decreased growth

Substance: TRLSSGLKINSAKDDAAGLQIA (listed as Pseudomonas syringae) [Flg22-PSA, Flg22 from Pseudomonas syringae pv. actinidiae]
- PSA-V leaf spot symptoms vs untreated control ([2]; 6, 16 and 23 DAI): significantly reduced PSA-V leaf spot symptoms
- less leaf spot compared to untreated control ([2]; combination with Flg22-PSA pre-treatment (partner not given), 29 DAI): 14.3%
- Avg. Activity (%) Corn (5828 YX) 5 nM polypeptide [3]: 154.4%
- Avg. Activity (%) Soybean (297 R4) 100 nM polypeptide [4]: 113.1%
- Average Total Relative Light Units (RLUs); SEM in parentheses ([5]; Kiwi 'Hayward' leaf petiole slices, 40 minutes time course): 124,550 RLU
- ROS production relative to Bt4Q7Flg22 (%) ([5]; Kiwi 'Hayward' leaf petioles): 262%

Substance: Gm RHPP (GGIRAAPTGNER; Glycine max)
- Average Total Yield Bu/Ac Variety 1 (soybean [6]; use rate 4.0 Fl. oz/Ac): 58.61 Bu/Ac
- Average Total Yield Bu/Ac Variety 1 (soybean [6]; use rate 8.0 Fl. oz/Ac): 59.47 Bu/Ac
- Average Bu/Ac Increase compared to Control Variety 1 and 2 (soybean [7]; use rate 4.0 Fl. oz/Ac): +1.26 Bu/Ac
- Average Total Yield Bu/Ac Variety 1 and 2 (soybean [7]; use rate 4.0 Fl. oz/Ac): 61.83 Bu/Ac
- Average Bu/Ac Increase compared to Control Variety 1 and 2 (soybean [7]; use rate 8.0 Fl. oz/Ac): +0.51 Bu/Ac
- Average Total Yield Bu/Ac Variety 1 and 2 (soybean [7]; use rate 8.0 Fl. oz/Ac): 61.08 Bu/Ac
- Average Total Yield Bu/Ac Variety 2 (soybean [7]; use rate 4.0 Fl. oz/Ac): 66.35 Bu/Ac
- Average Total Yield Bu/Ac Variety 2 (soybean [7]; use rate 8.0 Fl. oz/Ac): 62.46 Bu/Ac

Substance: Cs.thionin: thionin polypeptide, applied as filtrate (RVCQSQSHHFHGACFSHHNCAFVCRNEGFSGGKCRGVRRRCFCSKLC; applied as filtrate; listed as Citrus sinensis)
- growth of Agrobacterium cultures vs filtrate, LB or Tet controls [1]: dose dependent response and decreased growth

Substance: Tyr(SO3H)-I-Tyr(SO3H)-TQ ([sY]I[sY]TQ; listed as Arabidopsis thaliana) [At.PSKα, Phytosulfokine alpha, Arabidopsis thaliana]
- Plant Height Normalized as a percentage of control height Non-stress (corn [8]; 5 weeks, control surfactant 0.01% v/v, HpaG-like 1 μM, At.PSKα 100 nM): 98.2%
- Plant Height Normalized as a percentage of control height Stress (corn [8]; 5 weeks, heat and water deficit stress, control surfactant 0.01% v/v, HpaG-like 1 μM, At.PSKα 100 nM): 107.8%
- growth phenotype vs control (corn [8]; foliar (HpaG-like 1 μM, PSKα), heat and water deficit stress): improved growth phenotype
- Height (cm) after stress 5 weeks (corn [8]; heat and water deficit stress, HpaG-like 1 μM, At.PSKα 100 nM foliar): 54.88 cm
- Height (cm) after non-stress 5 weeks (corn [8]; non-stress growth room, HpaG-like 1 μM, At.PSKα 100 nM foliar): 58.62 cm
- Bu/Ac Foliar Corn (yield increase) (corn [9]; 1 μM foliar spray with surfactant at V5-V8, corn hybrid 5140RR, vs water control): 3.0 Bu/Ac
- yield increase (corn [9]; foliar 1 μM, V5-V8, hybrid 5140RR, one location): 3 Bu/Ac
- increase in height vs control (soybean [10]; foliar at V1-V4, non-stress environment): 3.5%
- increase in height vs control (soybean [10]; foliar at V1-V4, stress (heat and water deficit) environment): 4.3%
- Percentage (%) change in Height in Stress Environment Soybean with At.PSKα over control (soybean [10]; foliar spray at V1-V4, heat and water deficit stress): 4.3%
- Percentage (%) change in Height in Non-Stress Environment Soybean with At.PSKα over control (soybean [10]; foliar spray at V1-V4, non-stress): 3.5%
- Bu/Ac Foliar Soybean (yield increase) (soybean [7]; 1 μM foliar spray with surfactant at V1-V4, soybean hybrid 375 NR, vs water control): 0.8 Bu/Ac
- yield increase (soybean [7]; foliar 1 μM, V1-V4, hybrid 375 NR, one location): 0.8 Bu/Ac

Substance: thionin tagged: thionin polypeptide comprising a phloem localization sequence (printed SEQ ID NO: 650) (RTCESQSHRFKGPCSRDSNCATVCLTEGFSGGDCRGFRRRCRCTRPCVFDEK)
- Ct values vs control trees [11]: higher average Ct values
- average Ct value vs un-tagged thionin [11]: higher average Ct value at T56
